Legend:
[1] = target: T1, Carboxylic ester hydrolase (Sus scrofa) (UniProt A0A286ZKB1); test: Inhibition of porcine cholesterol esterase at 25 nM using para-nitrophenyl butyrate as substrate after 5 mins in presence of sodium taurocholate by spectrophotometric method relative to control
T1 sequence (whole entry): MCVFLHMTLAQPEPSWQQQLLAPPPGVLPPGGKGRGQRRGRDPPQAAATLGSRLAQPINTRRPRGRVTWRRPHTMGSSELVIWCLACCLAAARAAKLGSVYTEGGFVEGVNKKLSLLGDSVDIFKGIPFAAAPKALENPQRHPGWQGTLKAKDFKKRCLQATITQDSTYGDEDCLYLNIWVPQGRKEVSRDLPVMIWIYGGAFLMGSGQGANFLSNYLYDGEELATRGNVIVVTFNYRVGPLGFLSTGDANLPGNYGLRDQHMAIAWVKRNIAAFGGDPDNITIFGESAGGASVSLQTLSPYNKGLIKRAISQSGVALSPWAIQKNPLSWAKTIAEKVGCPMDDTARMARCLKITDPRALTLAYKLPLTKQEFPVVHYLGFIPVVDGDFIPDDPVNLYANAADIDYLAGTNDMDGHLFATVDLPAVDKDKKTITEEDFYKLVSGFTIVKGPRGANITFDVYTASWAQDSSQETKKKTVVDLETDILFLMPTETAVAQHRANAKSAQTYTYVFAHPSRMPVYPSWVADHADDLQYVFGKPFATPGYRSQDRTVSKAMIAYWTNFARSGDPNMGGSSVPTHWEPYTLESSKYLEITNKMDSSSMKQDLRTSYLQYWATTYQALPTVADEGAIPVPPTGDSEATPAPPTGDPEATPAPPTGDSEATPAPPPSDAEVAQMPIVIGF

[2] = target: T1, Carboxylic ester hydrolase (Sus scrofa); test: Inhibition of porcine cholesterol esterase at 10 nM using para-nitrophenyl butyrate as substrate after 5 mins in presence of sodium taurocholate by spectrophotometric method relative to control
[3] = target: T1, Carboxylic ester hydrolase (Sus scrofa); test: Inhibition of porcine cholesterol esterase at 50 nM using para-nitrophenyl butyrate as substrate after 5 mins in presence of sodium taurocholate by spectrophotometric method relative to control
[4] = target: T2, Carboxylic ester hydrolase (Sus scrofa, UniProt A0A286ZKB1); test: Inhibition of porcine cholesterol esterase using para-nitrophenyl butyrate as substrate after 5 mins in presence of sodium taurocholate by spectrophotometric method
T2 sequence (A0A286ZKB1 whole entry): T1 sequence (whole entry)

[5] = target: T1, Carboxylic ester hydrolase (Sus scrofa); test: Inhibition of porcine cholesterol esterase at 5 nM using para-nitrophenyl butyrate as substrate after 5 mins in presence of sodium taurocholate by spectrophotometric method relative to control
[6] = target: T1, Carboxylic ester hydrolase (Sus scrofa); test: Inhibition of porcine cholesterol esterase at 1 nM using para-nitrophenyl butyrate as substrate after 5 mins in presence of sodium taurocholate by spectrophotometric method relative to control

Row | Compound | inhibition [1] [%] | inhibition [2] [%] | inhibition [3] [%] | IC50 ([4]; read-out: IC50) [nM] | inhibition [5] [%] | inhibition [6] [%] | IC50 [4]
1 | O=c1cc(-c2c(F)cccc2F)oc2c1ccc1ccccc12 | 88 | 83 | 92 | 1.99 | 71 | 54 | 
2 | O=c1cc(-c2c(F)cccc2C(F)(F)F)oc2c1ccc1ccccc12 | 59 | 52 | 64 | 38.9 | 48 | 31 | 
3 | O=c1cc(-c2cccc(Cl)c2)oc2c1ccc1ccccc12 | 83 | 80 | 85 | 6.99 | 68 | 51 | 
4 | O=c1cc(-c2ccc(CCl)cc2)oc2c1ccc1ccccc12 | 60 | 48 | 66 | 39.2 | 43 | 32 | 
5 | O=c1cc(-c2cccc(Cl)c2Cl)oc2c1ccc1ccccc12 | 82 | 78 | 84 | 10.8 | 64 | 50 | 
6 | O=c1cc(-c2cccc(Br)c2)oc2c1ccc1ccccc12 | 76 | 73 | 78 | 26.1 | 57 | 43 | 
7 | O=c1cc(-c2cc([N+](=O)[O-])cc([N+](=O)[O-])c2)oc2c1ccc1ccccc12 | 75 | 72 | 76 | 30 | 54 | 41 | 
8 | CC(=O)Oc1cccc(-c2cc(=O)c3ccc4ccccc4c3o2)c1 | 47 | 36 | 55 |  | 27 | 23 | Not Active
9 | O=c1cc(-c2ccccc2)oc2c1ccc1ccccc12 [ALPHA-NAPHTHOFLAVONE] | 48 | 40 | 51 | 47.8 | 33 | 28 | 
10 | Cc1ccc(-c2cc(=O)c3ccc4ccccc4c3o2)cc1 | 31 | 24 | 34 |  | 18 | 14 | Not Active
11 | O=c1cc(-c2cc(C(F)(F)F)cc(C(F)(F)F)c2)oc2c1ccc1ccccc12 | 42 | 34 | 54 |  | 28 | 21 | Not Active
12 | O=c1cc(-c2cc(F)ccc2F)oc2c1ccc1ccccc12 | 84 | 79 | 86 | 6.81 | 65 | 49 | 
13 | O=c1cc(-c2ccc(F)c(C(F)(F)F)c2)oc2c1ccc1ccccc12 | 55 | 43 | 63 | 43 | 34 | 21 | 
14 | O=c1cc(-c2cccc(OC(F)(F)F)c2)oc2c1ccc1ccccc12 | 39 | 32 | 44 |  | 24 | 17 | Not Active
15 | O=c1cc(-c2ccc([N+](=O)[O-])cc2)oc2c1ccc1ccccc12 | 69 | 68 | 70 | 37.3 | 47 | 35 | 
16 | COc1ccc(-c2cc(=O)c3ccc4ccccc4c3o2)cc1OC | 23 | 20 | 25 |  | 14 | 5 | Not Active
17 | O=c1cc(-c2ccccc2F)oc2c1ccc1ccccc12 | 84 | 81 | 89 | 3.22 | 65 | 50 | 
18 | O=c1cc(-c2ccccc2C(F)(F)F)oc2c1ccc1ccccc12 | 48 | 36 | 58 |  | 32 | 29 | Not Active

— ChEMBL document CHEMBL4002634, “Benzoflavones as cholesterol esterase inhibitors: Synthesis, biological evaluation and docking studies” (Bioorg Med Chem Lett, 2017)
